Values of other authors as cited in patent US7799756B2, “Processes for stereoselective synthesis of trans ISATX247” (Albany Molecular Research, Inc., priority 2004, dated 2010).

How the values were obtained:
[1] = over natural cyclosporins and presently known cyclosporin derivatives
[2] = phase IIa, kidney transplantation, mixture of cis and trans isomers
[3] = compared to the corresponding cis-isomer
[4] = compared to the corresponding cis-isomer; remark: listed apart in the source

Compound	potency [1]	clinical trial outcome [2]	activity on immunosuppression [3]	therapeutic index [4]
C=CC=CC[C@@H](C)[C@@H](O)C1C(=O)N[C@H](CC)C(=O)N(C)CC(=O)N(C)[C@@H](CC(C)C)C(=O)N[C@H](C(C)C)C(=O)N(C)[C@H](CC(C)C)C(=O)N[C@H](C)C(=O)N[C@@H](C)C(=O)N(C)[C@H](CC(C)C)C(=O)N(C)[C@H](CC(C)C)C(=O)N(C)[C@H](C(C)C)C(=O)N1C (stereo partly drawn) [ISATX247, cyclo {(E,Z)-(2S,3R,4R)-3-hydoxy-4-methyl-2-(methylamino)-6,8-nonadienoyl-L-2-aminobutyryl-N-methyl-glycyl-N -methyl-L-leucyl-L-valyl-N-methyl-L-leucyl-L-alanyl-D-alanyl-N-methyl-L-leucyl-N-methyl-L-leucyl-N-methyl-L-valyl}]	enhanced potency	positive results		
trans ISATX247			better activity on immunosuppression	improved therapeutic index
